# Results as given in patent US9951028B2, “Agricultural chemicals” (REDAG CROP PROTECTION LTD, priority 2013, dated 2018).
# Tests used:
# Format in all cases: in vivo
# [1] = test system: Abutilon theophrasti (China Jute); assay: Herbicidal efficacy screen, corrected necrosis
# Procedure: (§1) Plants were obtained as seeds and were grown to the 2-4 true leaf stage. Plants were grown under laboratory conditions, individually in seed trays. Each plant (in an approximately 3 cm diameter plug) was then detached from the tray for spraying. The compounds were screened at a range of five concentrations, diluted in acetone and Tween™. A carrier only control was also conducted. Treatments were applied directly onto the plants, using a potter tower, at a specified application rate. One plant of each species was sprayed using a potter tower. The 3 different types of plants were placed on a 10 cm diameter platform directly beneath the potter sprayer and sprayed simultaneously. The growth of the plants and any Phytotoxicity effects were then assessed at intervals over 21 days, according to EPPO guideline PP1/135. In the tables below C represents a percentage increase in necrosis relative to the control of 0.1-50; B represents a percentage inhibition of 50-80; and A represents a percentage inhibition of 80-100. Certain compounds of the invention were screened for herbicidal efficacy against target plants: Amaranthus retroflexus (redroot pigweed), Abutilon theophrasti (China Jute): Capsella bursa-pastoris, (shepherd's-purse) Echinochloa crus-galli, Hordeum vulgare (Barley),
# [2] = test system: Capsella bursa-pastoris, (shepherd's-purse); assay: Herbicidal efficacy screen, corrected necrosis
# Procedure: as §1
# [3] = test system: Amaranthus retroflexus (redroot pigweed); assay: Herbicidal efficacy screen, corrected necrosis
# Procedure: as §1
# [4] = test system: common chickweed, Stellaria media; assay: Herbicidal efficacy screen, potter tower spray, necrosis assessed
# Procedure: (§2) Compounds 22, 23 and 24 were screened for herbicidal efficacy against target plants: garden cress, Lepidium sativum, common chickweed, Stellaria media, and white mustard […] alba Plants were obtained as seeds and were grown to the 2-4 true leaf stage. Plants were grown under laboratory conditions, individually in seed trays. Each plant (in an approximately 3 cm diameter plug) was then detached from the tray for spraying. The compounds were screened at a range of five concentrations, diluted in acetone and TweenTM. A carrier only control was also conducted. Treatments were applied directly onto the plants, using a potter tower, at a specified application rate. One plant of each species was sprayed using a potter tower. The 3 different types of plants were placed on a 10 cm diameter platform directly beneath the potter sprayer and sprayed simultaneously. The growth of the plants and any Phytotoxicity effects were then assessed at intervals over 21 days, according to EPPO guideline PP1/135. Five replicas were performed for each treatment, for each species. In the tables below C represents a percentage increase in necrosis relative to the control of 0.1-50; B represents a percentage inhibition of 50-80; and A represents a percentage inhibition of 80-100.
# [5] = test system: garden cress, Lepidium sativum; assay: as above; details: 12.5 g/ha
# Procedure: as §2
# [6] = 6.25 g/ha, day 1 post application
# [7] = 6.25 g/ha, day 7 post application
# [8] = 12.5 g/ha, day 1 post application
# [9] = 12.5 g/ha, day 7 post application
# [10] = 25 g/ha, day 1 post application
# [11] = 25 g/ha, day 7 post application
# [12] = 50 g/ha, day 1 post application
# [13] = 50 g/ha, day 7 post application
# [14] = 100 g/ha, day 1 post application
# [15] = 100 g/ha, day 7 post application
structure (smiles),measurement,setting,value
"CC(C)N(C)S(=O)(=O)/N=C/c1cc(-n2c(=O)cc(C(F)(F)F)n(C)c2=O)c(F)cc1Cl [Compound 22, 1-[4-Chloro-2-fluoro-5-[(E)-(isopropyl(methyl)sulfamoyl)iminomethyl]phenyl]-3-methyl-2,6-dioxo-4-(trifluoromethyl)pyrimidine]",Average of corrected necrosis,[1]; [6],C (C represents a percentage increase in necrosis relative to the control of 0.1-50)
same,Average of corrected necrosis,[1]; [7],A (A represents a percentage inhibition of 80-100)
same,Average of corrected necrosis,[1]; [8],C (C represents a percentage increase in necrosis relative to the control of 0.1-50)
same,Average of corrected necrosis,[1]; [9],A (A represents a percentage inhibition of 80-100)
same,Average of corrected necrosis,[1]; [10],C (C represents a percentage increase in necrosis relative to the control of 0.1-50)
same,Average of corrected necrosis,[1]; [11],A (A represents a percentage inhibition of 80-100)
same,Average of corrected necrosis,[1]; [12],C (C represents a percentage increase in necrosis relative to the control of 0.1-50)
same,Average of corrected necrosis,[1]; [13],A (A represents a percentage inhibition of 80-100)
same,Average of corrected necrosis,[1]; [14],C (C represents a percentage increase in necrosis relative to the control of 0.1-50)
same,Average of corrected necrosis,[1]; [15],A (A represents a percentage inhibition of 80-100)
same,Average of corrected necrosis,[2]; [6],0%
same,Average of corrected necrosis,[2]; [7],A (A represents a percentage inhibition of 80-100)
same,Average of corrected necrosis,[2]; [8],C (C represents a percentage increase in necrosis relative to the control of 0.1-50)
same,Average of corrected necrosis,[2]; [9],A (A represents a percentage inhibition of 80-100)
same,Average of corrected necrosis,[2]; [10],C (C represents a percentage increase in necrosis relative to the control of 0.1-50)
same,Average of corrected necrosis,[2]; [11],A (A represents a percentage inhibition of 80-100)
same,Average of corrected necrosis,[2]; [12],0%
same,Average of corrected necrosis,[2]; [13],A (A represents a percentage inhibition of 80-100)
same,Average of corrected necrosis,[2]; [14],C (C represents a percentage increase in necrosis relative to the control of 0.1-50)
same,Average of corrected necrosis,[2]; [15],A (A represents a percentage inhibition of 80-100)
same,Average of corrected necrosis,[3]; [6],C (C represents a percentage increase in necrosis relative to the control of 0.1-50)
same,Average of corrected necrosis,[3]; [7],A (A represents a percentage inhibition of 80-100)
same,Average of corrected necrosis,[3]; [8],C (C represents a percentage increase in necrosis relative to the control of 0.1-50)
same,Average of corrected necrosis,[3]; [9],A (A represents a percentage inhibition of 80-100)
same,Average of corrected necrosis,[3]; [10],C (C represents a percentage increase in necrosis relative to the control of 0.1-50)
same,Average of corrected necrosis,[3]; [11],A (A represents a percentage inhibition of 80-100)
same,Average of corrected necrosis,[3]; [12],C (C represents a percentage increase in necrosis relative to the control of 0.1-50)
same,Average of corrected necrosis,[3]; [13],A (A represents a percentage inhibition of 80-100)
same,Average of corrected necrosis,[3]; [14],C (C represents a percentage increase in necrosis relative to the control of 0.1-50)
same,Average of corrected necrosis,[3]; [15],A (A represents a percentage inhibition of 80-100)
same,Average of necrosis,[4]; [8],C (C represents a percentage increase in necrosis relative to the control of 0.1-50)
same,Average of necrosis,"[4]; 12.5 g/ha, day 2 post application",C (C represents a percentage increase in necrosis relative to the control of 0.1-50)
same,Average of necrosis,"[4]; 12.5 g/ha, day 3 post application",C (C represents a percentage increase in necrosis relative to the control of 0.1-50)
same,Average of necrosis,"[4]; 12.5 g/ha, day 4 post application",C (C represents a percentage increase in necrosis relative to the control of 0.1-50)
same,Average of necrosis,"[4]; 12.5 g/ha, day 5 post application",B (B represents a percentage inhibition of 50-80)
same,Average of necrosis,[4]; [9],B (B represents a percentage inhibition of 50-80)
same,Average of necrosis,"[4]; 12.5 g/ha, day 10 post application",B (B represents a percentage inhibition of 50-80)
same,Average of necrosis,[4]; [10],C (C represents a percentage increase in necrosis relative to the control of 0.1-50)
same,Average of necrosis,"[4]; 25 g/ha, day 2 post application",C (C represents a percentage increase in necrosis relative to the control of 0.1-50)
same,Average of necrosis,"[4]; 25 g/ha, day 3 post application",C (C represents a percentage increase in necrosis relative to the control of 0.1-50)
same,Average of necrosis,"[4]; 25 g/ha, day 4 post application",C (C represents a percentage increase in necrosis relative to the control of 0.1-50)
same,Average of necrosis,"[4]; 25 g/ha, day 5 post application",A (A represents a percentage inhibition of 80-100)
same,Average of necrosis,[4]; [11],A (A represents a percentage inhibition of 80-100)
same,Average of necrosis,"[4]; 25 g/ha, day 10 post application",A (A represents a percentage inhibition of 80-100)
same,Average of necrosis,[4]; [12],C (C represents a percentage increase in necrosis relative to the control of 0.1-50)
same,Average of necrosis,"[4]; 50 g/ha, day 2 post application",C (C represents a percentage increase in necrosis relative to the control of 0.1-50)
same,Average of necrosis,"[4]; 50 g/ha, day 3 post application",C (C represents a percentage increase in necrosis relative to the control of 0.1-50)
same,Average of necrosis,"[4]; 50 g/ha, day 4 post application",B (B represents a percentage inhibition of 50-80)
same,Average of necrosis,"[4]; 50 g/ha, day 5 post application",B (B represents a percentage inhibition of 50-80)
same,Average of necrosis,[4]; [13],B (B represents a percentage inhibition of 50-80)
same,Average of necrosis,"[4]; 50 g/ha, day 10 post application",A (A represents a percentage inhibition of 80-100)
same,Average of necrosis,[4]; [14],C (C represents a percentage increase in necrosis relative to the control of 0.1-50)
same,Average of necrosis,"[4]; 100 g/ha, day 2 post application",C (C represents a percentage increase in necrosis relative to the control of 0.1-50)
same,Average of necrosis,"[4]; 100 g/ha, day 3 post application",C (C represents a percentage increase in necrosis relative to the control of 0.1-50)
same,Average of necrosis,"[4]; 100 g/ha, day 4 post application",B (B represents a percentage inhibition of 50-80)
same,Average of necrosis,"[4]; 100 g/ha, day 5 post application",A (A represents a percentage inhibition of 80-100)
same,Average of necrosis,[4]; [15],A (A represents a percentage inhibition of 80-100)
same,Average of necrosis,"[4]; 100 g/ha, day 10 post application",A (A represents a percentage inhibition of 80-100)
same,Average of necrosis,"[4]; 200 g/ha, day 1 post application",C (C represents a percentage increase in necrosis relative to the control of 0.1-50)
same,Average of necrosis,"[4]; 200 g/ha, day 2 post application",C (C represents a percentage increase in necrosis relative to the control of 0.1-50)
same,Average of necrosis,"[4]; 200 g/ha, day 3 post application",C (C represents a percentage increase in necrosis relative to the control of 0.1-50)
same,Average of necrosis,"[4]; 200 g/ha, day 4 post application",B (B represents a percentage inhibition of 50-80)
same,Average of necrosis,"[4]; 200 g/ha, day 5 post application",A (A represents a percentage inhibition of 80-100)
same,Average of necrosis,"[4]; 200 g/ha, day 7 post application",A (A represents a percentage inhibition of 80-100)
same,Average of necrosis,"[4]; 200 g/ha, day 10 post application",A (A represents a percentage inhibition of 80-100)
same,Average of necrosis,[5]; day 1 post application,C (C represents a percentage increase in necrosis relative to the control of 0.1-50)
same,Average of necrosis,[5]; day 2 post application,C (C represents a percentage increase in necrosis relative to the control of 0.1-50)
